# Measurements: US20110201497A1, “Composition Comprising A Pesticide and an Alkoxylate of Iso-Heptadecylamine” (BASF SE, priority 2010, published 2011)
# Assays:
# [1] = tested on: winter wheat; assay: Greenhouse test, herbicidal activity of glyphosate SL with amine alkoxylate against winter wheat; format: in vivo, winter wheat (cv. Cubus); details: scored vs untreated control
# Experimental: (§1) To carry out greenhouse tests, the winter wheats (cv. Cubus) or soybeans (cv. Oxford) were sown or potted in loamy sand at a sowing depth of 1-2 cm. As soon as the plants had reached a height of 10 to 25 cm (i.e. approx. 10 to 21 days after sowing), the spray mixtures were applied to the plants in a spray cabinet.
# (§2) A concentrated formulation comprising glyphosate isoproylammonium dissolved in water and amine alkoxylate of example 2 were diluted with fully demineralized water and were applied at a water application rate of 375 l/ha ([…]). The temperatures during the experimental period, which lasted for 3 to 4 weeks, were between 18 and 35° C. During this time, the test plants received optimal irrigation, the nutrient supply being effected via the irrigation water.
# (§3) The herbicidal activity was assessed by scoring the treated plants in comparison with the untreated control plants (table 1). The assessment scale goes from 0% to 100% activity. 100% activity means complete dying at least of the aerial plant parts. In contrast, 0% activity means that no differences were observed between treated and untreated plants. The results in table 1 and 2 confirm the increased activity of the active substance by addition of the amine alkoxylate.
# [2] = tested on: soybean; assay: Greenhouse test, herbicidal activity of glyphosate SL with amine alkoxylate against soybean; format: in vivo, soybean (cv. Oxford); details: scored vs untreated control
# Experimental: as §1, §2, §3
# [3] = glyphosate 140 g/ha, amine alkoxylate (where present) 300 g/ha, 375 l/ha water
# [4] = glyphosate 280 g/ha, with amine alkoxylate where named
smiles,measurement,setting,value
O=C(O)CNCP(=O)(O)O [glyphosate],Activity [%] after 14 days,[1]; [3],64%
same,Activity [%] after 21 days,[1]; [3],73%
same,Activity [%] after 28 days,[1]; [3],73%
same,Activity [%] after 14 days,[1]; [4],71%
same,Activity [%] after 21 days,[1]; [4],81%
same,Activity [%] after 28 days,[1]; [4],81%
same,Activity [%] after 14 days,[2]; [3],29%
same,Activity [%] after 21 days,[2]; [3],38%
same,Activity [%] after 28 days,[2]; [3],38%
same,Activity [%] after 14 days,[2]; [4],36%
same,Activity [%] after 21 days,[2]; [4],40%
same,Activity [%] after 28 days,[2]; [4],40%
